Assay results from patent publication US6391921B1 (priority 2000, dated 2002).

Tests used:
[1] = tested on: RBL-2H3 mast cells; assay: IgE/antigen induced calcium mobilization in mast cells (fluo-3 imaging); assay type: cell-based, rat; conditions: 30 μM, 20 minutes prior to stimulation with 20 ng/ml DNP-BSA; FIG. 2A
Procedure: To study the effects of compound D-58, RBL-2H3 cells were incubated with compound D-58 at the indicated concentrations or vehicle for 1 hour prior to antigen challenge. Mast cell degranulation (β-hexosaminidase release, % of total) was assessed by measuring the β-hexosaminidase levels in cell free supernatants and Triton X-100 solubilized pellets using the formula: β-hexosaminidase release, % of total=100×(β-hexosaminidase level in supernatant/β-hexosaminidase level in supernatant+solubilized pellet). LTC4 levels in cell free supernatants of mast cells were estimated using standard procedures (ref 24). […]
The results are shown in FIGS. 2A-B. IgE/antigen stimulation of RBL-2H3 mast cells activates a cascade of signal transduction events, which includes tyrosine phosphorylation of several proteins and SYK/BTK-mediated activation of phospholipase C, which generates second messengers inositol 1,4,5-triphosphate (IP3) and 1,2-diacylglycerol (DAG) (ref 7). […] IgE sensitized and Ca^2+ indicator fluo-3/AM loaded RBL-2H3 cells were stimulated with 20 ng/ml antigen (DNP-BSA) in presence of 1 mM calcium chloride and the fluorescence intensity, reflecting the calcium ion concentration was measured. […]
The fluorescent Ca^2+ indicator, fluo-3/AM (Molecular Probes) was used to detect Ca^2+ mobilizations in individual cells (ref 25). […] The background fluorescence was subtracted from each image.

[2] = biological target: T1, Src family tyrosine kinase HCK (Homo sapiens, UniProt P08631); assay: HCK kinase assay (immunoprecipitated from HCK-transfected COS-7 cells); assay type: biochemical; conditions: FIG. 1C; 1 hour exposure
T1 construct: expressed in transfected cells; host or cells: COS-7 cells transfected with pSV7c-HCK; immunoprecipitated with anti-HCK antibody
Procedure: For HCK kinase assays, HCK-transfected COS-7 cells were used. The cloning and expression of HCK in COS-7 cells has been described previously (ref 18). The pSV7c-HCK plasmid was transfected into 2×10^6 COS-7 cells using Lipofectamine (GIBCO/BRL), and the cells were harvested 48 hours later. The cells were lysed in NP-40 buffer and HCK was immunoprecipitated from the whole cell lysates with an anti-HCK antibody. Kinase assays were performed following a 1 hour exposure of the purified (BTK, SYK) or immunoprecipitated (HCK) tyrosine kinases to the test compound, as described in detail elsewhere (refs 18-22). Following electrophoresis, kinase gels were dried onto Whatman 3M filter paper and subjected to phosphoimaging on a Molecular Imager (Bio-Rad, Hercules, Calif.) as well as autoradiography on film. […] For each drug concentration, a BTK or SYK kinase activity index was determined by comparing the ratios of the kinase activity in phosphorimager units (PIU) and density of the protein bands in densitometric scanning units (DSU) to those of the baseline sample and using the formula: Activity Index=[PIU of kinase band/DSU of BTK/SYK protein band]test sample: [PIU of kinase band/DSU of BTK/SYK protein band]baseline control sample.

T1 sequence (P08631 whole entry): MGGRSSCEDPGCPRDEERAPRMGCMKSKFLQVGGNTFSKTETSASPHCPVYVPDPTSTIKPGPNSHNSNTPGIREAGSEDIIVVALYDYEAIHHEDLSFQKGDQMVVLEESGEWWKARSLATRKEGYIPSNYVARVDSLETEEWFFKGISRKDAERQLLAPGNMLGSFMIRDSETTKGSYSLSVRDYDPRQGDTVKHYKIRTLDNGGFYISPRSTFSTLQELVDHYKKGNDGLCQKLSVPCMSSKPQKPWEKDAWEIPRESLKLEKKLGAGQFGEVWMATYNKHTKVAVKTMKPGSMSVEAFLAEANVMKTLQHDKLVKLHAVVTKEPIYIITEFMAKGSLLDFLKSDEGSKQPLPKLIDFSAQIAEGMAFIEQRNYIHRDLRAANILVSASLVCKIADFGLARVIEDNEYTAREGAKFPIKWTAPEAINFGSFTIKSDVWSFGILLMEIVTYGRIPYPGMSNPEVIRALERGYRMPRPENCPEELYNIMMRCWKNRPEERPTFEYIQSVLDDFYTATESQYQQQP

With `COc1ccc(CC(=O)c2c(O)cc(O)cc2O)cc1` [Compound D-58] the “IgE/antigen induced calcium response” value [1] was “abrogation of calcium mobilization” and the IC50 [2] was over 200 µM.
